What was measured:
[1] = test system: LPS-induced IL-6 release in primary rat astrocytes; assay: LPS-induced IL-6 release in primary rat astrocytes (ELISA); assay type: cell-based; conditions: 1 μg/ml LPS, 20 μM compound, 24 h
Protocol: According to Löffler, astrocyte-rich primary cell cultures were started with brains of newborn mice and rats and were maintained in Dulbecco's modified Eagle's medium (DMEM) for 33 days at 37°C in a humified atmosphere with 95% air/5% CO2.
Measurements of IL-6 in conditioned medium and murine plasma samples were done by means of human- or murine-specific IL-6 Cytoset kits (Invitrogen, Darmstadt, Germany) according to manufacturer's protocols.
Figure 5 Suppression of LPS-induced IL-6 release in primary murine astrocytes by selected HAK compounds. […] Astrocytes derived from newborn mice and rats were cultivated for 33 days followed by stimulation with 1 μg/ml LPS and treatment with compounds HAK-2 and HAK-5 (20 μM). After 24 hours conditioned media were analyzed with IL-6 specific ELISA. Data (mean ± SD) were obtained from experiments carried out in quadruplicate and statistical analysis was performed using the paired t test. Amount of IL-6 in LPS-treated control sample was set to 100%. ns, not significant; **p < 0.01; ***p < 0.001.
Primary murine astrocytes stimulated with 1 μg/ml LPS were co-treated with compounds HAK-2 and HAK-5 at a concentration of 20 μM each for 24 h. The observed effect of compounds HAK-2 and HAK-5 on LPS stimulation was similar to that of OSM-induced IL-6 expression in human U343 glioma cells (Figures 5A and 5B). […]

[2] = test system: IL-6 mRNA expression in U343 cells; assay: OSM-induced IL-6 mRNA expression in U343 cells (qRT-PCR time course); assay type: cell-based, human; conditions: 20 μM compound
Protocol: The human glioma cell line U343 [34] was maintained in DMEM containing 10% fetal bovine serum and 60 μg/ml gentamycin (Invitrogen, Darmstadt, Germany) at 37°C in a 10% CO2 atmosphere.
Total RNA of cultured cells and homogenized mouse brain tissue samples was isolated using RNA isolation kit "NucleoSpin RNA II" from Macherey and Nagel. RNA quantity was measured by spectrophotometrical quantification (NanoDrop 2000, Peqlab, Erlangen, Germany). Total RNA (0.5 μg) was transcribed to cDNA using Superscript III and oligo-dT primer (Invitrogen, Darmstadt, Germany). Quantitative real-time PCR was performed with QuantiFast SYBR Green PCR Master mix (Qiagen, Hilden, Germany) using Rotorgene 3000 system (Corbett, Sydney, Australia). Gene expression was normalized to the expression of three reference genes glyceraldehyde 3-phosphate dehydrogenase (GAPDH), glucose-6-phosphate dehydrogenase (G6PDH) and hypoxanthine-guanine phosphoribosyltransferase (HPRT). Primers for PREP (5'-[…]-3'; 5'- […]-3') and IL-6 (5'-AAAGGACGTCACATTGCA-3'; 5'-[…]-3') were designed using the Primer3 Software (http://frodo.wi.mit.edu/). Data were analyzed by Rotorgene 3000 Software version 6.0 by comparative quantitation. The appropriate size of PCR products was confirmed by gel-electrophoresis stained with ethidium bromide.
To analyze the time-course of OSM-induced IL-6 expression, U343 cells were incubated with OSM for different periods of time as indicated in figure 1B. Amounts of IL-6 mRNA and protein were subsequently quantified by qRT-PCR and by ELISA, respectively. […] Significant induction of IL-6 protein was detected in the conditioned medium as early as 3 h post stimulation and reaching a maximum at 24 h.
To reveal whether bioactivity of HAK compounds is based on suppression of IL-6 protein biosynthesis or on interference with IL-6 mRNA expression OSM-treated U343 cells were incubated with 20 μM of compound HAK-2 for different periods of time. […] Therefore, it is very likely that the relevant molecular target of HAK compounds is involved in the OSM-induced signal transduction process not earlier than 6 h after onset of the stimulation.
Figure 4 Time course of OSM-induced IL-6 mRNA expression in U343 cells treated with compound HAK-2. […] U343 cells were stimulated with 100 ng/ml OSM and treated with 0.1% DMSO as solvent control (solid line, black triangle) or 20 μM HAK-2 (dashed line, white triangle). Samples were harvested at time points indicated to extract total RNA. IL-6 mRNA expression was analyzed by qRT-PCR. All data points are presented as mean ± SD, and were obtained from experiments carried out in quadruplicate. Statistical analysis were performed between control and HAK-2 samples from same time point. ns, not significant; ***p < 0.001.

[3] = test system: STAT3/p65 complex; assay: Co-immunoprecipitation of p65 and STAT3 in OSM-stimulated U343 cells; assay type: cell-based, human; conditions: 100 ng/ml OSM, 20 μM compound, 6 h
Protocol: Cell lysates from 4 × 10^6 U343 cells/sample were obtained as described above. From each sample 200 μg of total protein were immunoprecipitated with 2 μg rabbit anti-p65 antibody (Santa Cruz Biotechnology; Heidelberg, Germany) or A. dest. (control) overnight at 4°C. Immunoprecipitated samples were incubated with 20 μl Dynabeads Protein G (Thermo Fisher Scientific, Karlsruhe, Germany) for 1 h at 4°C. Beads were washed 3 times with 1 ml PBS. Preparation of samples for SDS-PAGE analysis was done by means of dilution with SDS-PAGE sample buffer (Invitrogen, Darmstadt, Germany), followed by denaturation at 90°C for 10 min. SDS-PAGE analysis were performed as described before.
Normally, STAT3 is activated by phosphorylation at tyrosine 705, which induces dimerization, nuclear translocation and DNA binding. In contrast to other transcription factors like NF-κB, Creb and c/EBPb, STAT3 can not bind directly to the IL-6 promoter, because there are no STAT3 binding elements present. It is known from literature that several forms of interactions and cross talks between NF-κB and STAT3 exist. For instance, recent studies have shown a physical interaction between STAT3 and NF-κB [42, 43]. The importance of pSTAT3^S727 for protein interactions are under discussion. However, there is no information so far on the role of pSTAT3^S727 for the interaction with NF-κB. […]

SMILES: C[C@H](NC(=O)OCc1ccccc1)C(=O)N1CCC[C@H]1C(=O)c1nc2ccccc2s1 [HAK-2, Z-Ala-Pro-BTh]
- Reduction of LPS-induced IL-6 expression [1]: 50%
- Inhibition of OSM-induced IL-6 mRNA expression (time course) ([2]; 100 ng/ml OSM): strong inhibition
- Effect on second IL-6 mRNA expression peak ([2]; 100 ng/ml OSM, 6 h post stimulation): completely suppresses
- Effect on first IL-6 mRNA peak ([2]; 1 h post OSM stimulation): insensitive
- p65-mediated STAT3 co-immunoprecipitation [3]: clear reduction

— publication PMC3161871, “Heteroarylketones inhibit astroglial interleukin-6 expression via a STAT3/NF-κB signaling pathway” (Journal of Neuroinflammation, 2011)
